Source: patent publication US20100184047A1, “SCREENING AND THERAPEUTIC METHOD FOR NSCLC TARGETING THE CDCA8-AURKB COMPLEX” (ONCOTHERAPY SCIENCE, INC., priority 2007, published 2010)
“Also recorded” adds a separate entry of the source.

Tests used:
Type in all cases: cell-based, human
SBC-5 cells [1] = assay: MTT assay after siRNA-expression vector transfection; details: 7 days after G418 treatment, vs control siRNAs
Description: (§1) A vector-based RNA interference (RNAi) system, psiH1BX3.0, which was designed to synthesize siRNAs in mammalian cells was previously established (Suzuki C, et al., Cancer Res. 2003 Nov. 1; 63(21):7038-41; Kato T, et al., Cancer Res. 2005 Jul. 1; 65(13):5638-46; Furukawa C, et al., Cancer Res. 2005 Aug. 15; 65(16):7102-10; Suzuki C, et al., Cancer Res. 2005 Dec. 15; 65(24):11314-25. Ishikawa N, et al., Cancer Sci. 2006 August; 97(8):737-45; Takahashi K, et al., Cancer Res. 2006 Oct. 1; 66(19):9408-19; Hayama S, et al., Cancer Res. 2006 Nov. 1; 66(21):10339-48). 10 micrograms of siRNA-expression vector was transfected using 30 microliters of Lipofectamine 2000 (Invitrogen) into lung-cancer cell lines, LC319 and SBC-5. The transfected cells were cultured for seven days in the presence of appropriate concentrations of geneticin (G418), and the number of colonies was counted by Giemsa staining, and viability of cells was evaluated by MTT assay (cell-counting kit-8 solution; DOJINDO, Kumamoto, Japan), at 7 days after the G418 treatment. To confirm suppression of CDCA8 protein expression, western blotting was carried out with affinity-purified polyclonal antibody to CDCA8 according to the standard protocol. The target sequences of the synthetic oligonucleotides for RNAi were as follows: […]

LC319 cells [2] = assay: as above; details: 7 days after G418 treatment, vs control siRNAs
Description: as §1

SBC-5 cells [3] = assay: Colony formation assay after siRNA-expression vector transfection; details: Giemsa staining, vs control siRNAs
Description: as §1

LC319 cells [4] = assay: as above; details: Giemsa staining, vs control siRNAs
Description: as §1

CDCA8 [5] = assay: RNA interference with si-CDCA8 vectors, western blot of CDCA8 protein; details: in comparison with two control siRNAs (EGFP, Luciferase)
Method: (§2) Cells were lysed in lysis buffer; 50 mM Tris-HCl (pH 8.0), 150 mM NaCl, 0.5% NP-40, 0.5% deoxycholate-Na, 0.1% SDS, plus protease inhibitor (Protease Inhibitor Cocktail Set III; Calbiochem Darmstadt, Germany). An ECL western-blot analysis system was used (GE Healthcare Bio-sciences, Piscataway, N.J.), as previously described (Kato T, et al., Cancer Res. 2005 Jul. 1; 65(13):5638-46; Furukawa C, et al., Cancer Res. 2005 Aug. 15; 65(16):7102-10).
as §1

AURKB = AURKB knock-down by siRNA against AURKB, western blot; details: LC319 cells
Method: as §2
(§3) A vector-based RNA interference (RNAi) system, psiH1BX3.0, which was designed to synthesize siRNAs in mammalian cells was previously established (Suzuki C, et al., Cancer Res. 2003 Nov. 1; 63(21):7038-41; Kato T, et al., Cancer Res. 2005 Jul. 1; 65(13):5638-46; Furukawa C, et al., Cancer Res. 2005 Aug. 15; 65(16):7102-10; Suzuki C, et al., Cancer Res. 2005 Dec. 15; 65(24):11314-25. Ishikawa N, et al., Cancer Sci. 2006 August; 97(8):737-45; Takahashi K, et al., Cancer Res. 2006 Oct. 1; 66(19):9408-19; Hayama S, et al., Cancer Res. 2006 Nov. 1; 66(21):10339-48). 10 micrograms of siRNA-expression vector was transfected using 30 microliters of Lipofectamine 2000 (Invitrogen) into lung-cancer cell lines, LC319 and SBC-5. The transfected cells were cultured for seven days in the presence of appropriate concentrations of geneticin (G418), and the number of colonies was counted by Giemsa staining, and viability of cells was evaluated by MTT assay (cell-counting kit-8 solution; DOJINDO, Kumamoto, Japan), at 7 days after the G418 treatment. To confirm suppression of CDCA8 protein expression, western blotting was carried out with affinity-purified polyclonal antibody to CDCA8 according to the standard protocol. The target sequences of the synthetic oligonucleotides for RNAi were as follows:
Furthermore, to inhibit the AURKB activity in mammalian cells, siRNA oligos were constructed against AURKB (si-AURKB-#1 and -#2), as well as control siRNA oligos for EGFP. […]
#2: 5′-ACGCGGCACUUCACAAUUG-3′ (SEQ ID NO: 63)) in a final concentration of 100 nM. […] The cells were collected and analyzed after additional 72-hour culture.

CDCA8 transcripts = assay: Semi-quantitative RT-PCR of CDCA8 transcript after AURKB knock-down; details: LC319 cells
Method: Total RNA was extracted from cultured cells and clinical tissues using Trizol reagent (Life Technologies, Inc., Gaithersburg, Md.) according to the manufacturer's protocol. Extracted RNAs and normal human tissue poly(A) RNAs were treated with DNase I (Nippon Gene, Tokyo, Japan) and reversely-transcribed using oligo (dT) primer and SuperScript II reverse transcriptase (Invitrogen, Carlsbad, Calif.). Semi-quantitative RT-PCR experiments were carried out with the following synthesized CDCA8-specific primers, AURKB-specific primers, E2F-1-specific primers, or with beta-actin (ACTB)-specific primers as an internal control:
(§4) Cells seeded onto 10 cm-dishes were incubated in mixtures of both Lipofectamine (Invitrogen) and control 3 (5′-GAAGCAGCACGACUUCUUC-3′ (SEQ ID NO: 61)) or si-AURKBs (#1: 5′-CCAAACUGCUCAGGCAUAA-3′ (SEQ ID NO: 62);
(§5) #2: 5′-ACGCGGCACUUCACAAUUG-3′ (SEQ ID NO: 63)) in a final concentration of 100 nM. At 4 hours after transfection, the siRNA-lipofectamine mixtures were replaced with fresh media. The cells were collected and analyzed after additional 72-hour culture.

CDCA8 [6] = assay: Western blot of endogenous CDCA8 protein after AURKB knock-down; details: LC319 cells
Method: as §2, §3
Furthermore, to inhibit the AURKB activity in mammalian cells, siRNA oligos were constructed against AURKB (si-AURKB-#1 and -#2), as well as control siRNA oligos for EGFP. The target sequences of the synthetic oligonucleotides for RNAi were as follows:
as §4, §5

Substance	cell viability (MTT assay) (SBC-5 cells [1])	cell viability (MTT assay) (LC319 cells [2])	colony numbers (colony-formation assay) (SBC-5 cells [3])	colony numbers (colony-formation assay) (LC319 cells [4])	expression of endogenous CDCA8 proteins (CDCA8 [5]; LC319 cells)	expression of endogenous CDCA8 proteins (CDCA8 [5]; SBC-5 cells)	AURKB expression / AURKB protein (AURKB)	level of CDCA8 transcripts (CDCA8 transcripts)	amount of CDCA8 protein (CDCA8 [6])	phosphorylation levels of CDCA8 (CDCA8 [6])
5′-GCCGTGCTAACACTGTTAC-3′ (GCCGTGCTAACACTGTTACTTCAAGAGAGTAACAGTGTTAGCACGGC; expressed or natural sequence) [si-CDCA8-#2]	significant decreases	significant decreases	significant decreases	significant decreases	significantly suppressed	significantly suppressed	–	–	–	–
5′-CAGCAGAAGCTATTCAGAC-3′ (CAGCAGAAGCTATTCAGACTTCAAGAGAGTCTGAATAGCTTCTGCTG; expressed or natural sequence) [si-CDCA8-#1]	significant decreases	significant decreases	significant decreases	significant decreases	significantly suppressed	significantly suppressed	–	–	–	–
5′-ACGCGGCACUUCACAAUUG-3′ (listed as RNA, chemistry not given here) [si-AURKB-#2]	–	–	–	–	–	–	Reduction	not influenced	dramatically decreased	–
5′-GGTGATTCACAGAGACATA-3′ (GGTGATTCACAGAGACATATTCAAGAGATATGTCTCTGTGAATCACC; expressed or natural sequence) [si-AURKB]	–	–	–	–	–	–	selectively knocked down; also recorded: Reduction	not influenced	decreased	decreased
5′-CCAAACUGCUCAGGCAUAA-3′ (listed as RNA, chemistry not given here) [si-AURKB-#1]	–	–	–	–	–	–	Reduction	not influenced	dramatically decreased	–
